Test results taken from US20090011410A1, “METHOD FOR TAILORING ADMINISTRATION OF DRUGS BY QUANTITATION OF MRNA” (priority 2004, published 2009).
“Also recorded” adds a separate entry of the source.

Columns and labels:
[1] = tested on: PUMA mRNA; assay: drug-induced PUMA mRNA expression in whole blood of healthy adults; assay type: cell-based, human; details: for kinetics of PUMA induction: heparinized whole blood, 0-8 hours at 37° C., 20 μM BLM, 100 μM VP-16 (FIG. 5)
Experimental: (§1) In 8-well strip microtubes, 1.4 μl of 50× concentrations of drugs or controls (phosphate buffered saline (PBS) or DMSO) were added, and stored at −20° C. until use. […] Seventy μl of fresh heparinized whole blood was added into each well in triplicate, and incubated at 37° C. for 2-8 hours with the cap closed. For radiation treatment, blood was stimulated at designated doses using cesium-137. After each treatment, 50 μl of whole blood was transferred to filterplates as described below.
The mRNA and cDNA were prepared from whole blood. In brief, home-made 96-well filterplates were placed over collection plates, and 150 μl 5 mM Tris, pH 7.4, was applied. Following centrifugation at 120×g for 1 min at 4° C., 50 μl of blood samples were applied to each well and immediately centrifuged at 120×g for 2 min at 4° C., followed by washing of each well with 300 μl PBS once with centrifugation at 2000×g for 5 min at 4° C. Then, 60 μl stock lysis buffer, containing for example 0.5% N-Lauroylsarcosine, 4×SSC, 10 mM Tris HCl, pH 7.4, 1 mM EDTA, 0.1% IGEPAL CA-630, and 1.791 M guanidine thiocyanate, supplemented with 1% 2-mercaptoethanol (Bio Rad, Hercules, Calif., USA), 0.5 mg/ml proteinase K (Pierce, Rockford, Ill., USA), 0.1 mg/ml salmon sperm DNA (5 Prime Eppendorf/Brinkmann, Westbury, N.Y., USA), 0.1 mg/ml E. coli tRNA (Sigma), a cocktail of 10 mM each of the specific reverse primers shown in Table 1, and standard RNA34 oligonucleotides, were applied to the filterplates, followed by incubation at 37° C. for 10 min. The filterplates were then placed over oligo(dT)-immobilized microplates (GenePlate, RNAture), and centrifuged at 2000×g for 5 min at 4° C. Following overnight storage at 4° C., the microplates were washed with 100 μl plain lysis buffer 3 times, followed by 150 μl of wash buffer (0.5 M NaCl, 10 mM Tris, pH 7.4, 1 mM EDTA) 3 times at 4° C. The cDNA was directly synthesized in each well by adding 30 μl buffer containing 1×RT-buffer, 1.25 mM each of dNTP, 4 units rRNasin, and 80 units of MMLV reverse transcriptase (Promega) (without primers), and incubation at 37° C. for 2 hours. The specific primer-primed cDNA existed in solution, and oligo(dT)-primed cDNA stayed immobilized in the microplate. For TaqMan PCR (FIGS. 1, 3, 4), the resultant 4 μl cDNA solution was directly transferred to 384-well PCR plates, to which 5 μl of TaqMan universal master mix (ABI) and 1 μl oligonucleotide cocktail (15 μM each of forward and reverse primer, and 3-6 μM TaqMan probe) were applied, and PCR was conducted in PRISM 7900HT (ABI), with one cycle of 95° C. for 10 min followed by 45 cycles of 95° C. for 30 sec, 55° C. for 30 sec, and 60° C. for 1 min. For SYBR Green PCR (see FIG. 6), cDNA was diluted 3-4 fold in water, and 4 μl cDNA solution was directly transferred to 384-well PCR plates, to which 5 μl of a master mix (BioRad, Hercules, Calif.) and 1 μl of oligonucleotide cocktail (15 μM each of forward and reverse primer) were applied, and PCR was conducted in PRISM 7900HT (ABI), with one cycle of 95° C. for 10 min followed by 45 cycles of 95° C. for 30 sec and 60° C. for 1 min. Each gene was amplified in separate wells. The Ct was determined by analytical software (SDS, ABI). Although 1×RT buffer was used as a negative control, none of the primer pairs produced non-specific primer-dimers under these experimental conditions. For PUMA in FIG. 8, immobilized cDNA on the oligo(dT)-immobilized microplates was directly amplified in an iCycler (BioRad).
Quantitation of various mRNAs was conducted using the following method. Triplicate aliquots of 50 μl each of heparinized whole blood was applied to 96-well filterplates to trap leukocytes. The filterplates were placed over collection plates, and 150 μl 5 mM Tris, pH 7.4, was applied. […]

[2] = tested on: NOXA mRNA; assay: drug-induced NOXA mRNA expression in whole blood of healthy adults (SYBR green PCR screen); assay type: cell-based, human; details: 20 μM BLM or 100 μM VP-16, 4 hours at 37° C.; degree less than PUMA (FIG. 6)
Experimental: as §1
The mRNA and cDNA were prepared from whole blood. In brief, home-made 96-well filterplates were placed over collection plates, and 150 μl 5 mM Tris, pH 7.4, was applied. Following centrifugation at 120×g for 1 min at 4° C., 50 μl of blood samples were applied to each well and immediately centrifuged at 120×g for 2 min at 4° C., followed by washing of each well with 300 μl PBS once with centrifugation at 2000×g for 5 min at 4° C. […] The Ct was determined by analytical software (SDS, ABI). […]
Quantitation of various mRNAs was conducted using the following method. […]

[3] = tested on: human whole blood; assay: DNA fragmentation (apoptosis) in whole blood by agarose gel electrophoresis; assay type: cell-based; details: 1 day of incubation, 100 μM VP-16, 20 μM BLM (FIG. 5 inset)
Experimental: Using a commercial kit (Puregene, Gentra, Minneapolis, Minn.), genomic DNA was purified from 300 μl each of whole blood with or without treatments. DNA was then analyzed in 3.5% agarose (3:1 NuSieve:agarose, FMC, Rockland, Me.) gel electrophoresis, stained with 0.5 μg/ml ethidium bromide, and photographic images were recorded by AlphaImager (Alpha Innotech, San Leandro, Calif.).
To mimic physiological conditions, whole blood was used, without isolating mononuclear cells. […] After 1 day of incubation, genomic DNA was extracted, and DNA fragmentation was analyzed by agarose gel electrophoresis using ethidium bromide staining.
Genomic DNA was purified from 300 μl each of whole blood with or without treatments, using a commercial kit (Puregene, Gentra, Minneapolis, Minn.). DNA was then analyzed in 3.5% agarose (3:1 NuSieve:agarose, FMC, Rockland, Me.) gel electrophoresis, stained with 0.5 μg/ml ethidium bromide, and photographic images were recorded by Alpha-Iimager (Alpha Innotech, San Leandro, Calif.).

[4] = tested on: p21 mRNA, U937 cells; assay: etoposide-induced p21 mRNA expression in cultured U937 cells; assay type: cell-based, human; details: 10 μM etoposide, 2 hours at 37° C. (FIG. 1)
Experimental: (§2) Blood was obtained from healthy adults and from two leukemic non-Hodgkin's malignant lymphoma patients. […] For human experiments, blood aliquots were stimulated with various anti-cancer drugs at 37° C. for 2 hours, then both p21 and BAX mRNA were measured. The anti-cancer drugs used in this study were clinical drugs, and the concentration of each drug was adjusted to typical blood levels 3-6 hours after intravenous administration.

[5] = tested on: p21 mRNA, Jurkat cells; assay: etoposide-induced p21 mRNA expression in cultured Jurkat cells; assay type: cell-based, human; details: even when 100 μM was used (FIG. 1)
Experimental: as §2

[6] = tested on: BAX mRNA; assay: drug-induced BAX mRNA expression in whole blood of leukemia and lymphoma patients; assay type: cell-based, human; details: leukemic lymphoma patient 2, 2 hours at 37° C., drug concentrations (FIG. 3)
Experimental: For human experiments, blood aliquots were stimulated with various anti-cancer drugs at 37° C. for 2 hours, then both p21 and BAX mRNA were measured. The anti-cancer drugs used in this study were clinical drugs, and the concentration of each drug was adjusted to typical blood levels 3-6 hours after intravenous administration.
The mRNA and cDNA were prepared from whole blood. In brief, home-made 96-well filterplates were placed over collection plates, and 150 μl 5 mM Tris, pH 7.4, was applied. Following centrifugation at 120×g for 1 min at 4° C., 50 μl of blood samples were applied to each well and immediately centrifuged at 120×g for 2 min at 4° C., followed by washing of each well with 300 μl PBS once with centrifugation at 2000×g for 5 min at 4° C. Then, 60 μl stock lysis buffer, containing for example 0.5% N-Lauroylsarcosine, 4×SSC, 10 mM Tris HCl, pH 7.4, 1 mM EDTA, 0.1% IGEPAL CA-630, and 1.791 M guanidine thiocyanate, supplemented with 1% 2-mercaptoethanol (Bio Rad, Hercules, Calif., USA), 0.5 mg/ml proteinase K (Pierce, Rockford, Ill., USA), 0.1 mg/ml salmon sperm DNA (5 Prime Eppendorf/Brinkmann, Westbury, N.Y., USA), 0.1 mg/ml E. coli tRNA (Sigma), a cocktail of 10 mM each of the specific reverse primers shown in Table 1, and standard RNA34 oligonucleotides, were applied to the filterplates, followed by incubation at 37° C. for 10 min. The filterplates were then placed over oligo(dT)-immobilized microplates (GenePlate, RNAture), and centrifuged at 2000×g for 5 min at 4° C. Following overnight storage at 4° C., the microplates were washed with 100 μl plain lysis buffer 3 times, followed by 150 μl of wash buffer (0.5 M NaCl, 10 mM Tris, pH 7.4, 1 mM EDTA) 3 times at 4° C. The cDNA was directly synthesized in each well by adding 30 μl buffer containing 1× RT-butter, 1.25 mM each of dNTP, 4 units rRNasin, and 80 units of MMLV reverse transcriptase (Promega) (without primers), and incubation at 37° C. for 2 hours. The specific primer-primed cDNA existed in solution, and oligo(dT)-primed cDNA stayed immobilized in the microplate. For TaqMan PCR (FIGS. 1, 3, 4), the resultant 4 μl cDNA solution was directly transferred to 384-well PCR plates, to which 5 μl of TaqMan universal master mix (ABI) and 1 μl oligonucleotide cocktail (15 μM each of forward and reverse primer, and 3-6 μM TaqMan probe) were applied, and PCR was conducted in PRISM 7900HT (ABI), with one cycle of 95° C. for 10 min followed by 45 cycles of 95° C. for 30 sec, 55° C. for 30 sec, and 60° C. for 1 min. […] The Ct was determined by analytical software (SDS, ABI).

[7] = tested on: PUMA mRNA; assay: drug-induced PUMA mRNA expression in whole blood of leukemia and lymphoma patients; assay type: cell-based, human; details: 2 hours at 37° C.
[8] = tested on: leukemic non-Hodgkin's malignant lymphoma patient; assay: clinical course of patient 2 (leukemic non-Hodgkin's lymphoma); assay type: in vivo, human; details: patient 2 with continued thrombocytopenia (FIG. 4)
[9] = 20 μM BLM or 100 μM VP-16, 4 hours at 37° C. (FIG. 6)

| Compound | concentration at which significant induction of PUMA was observed ([1]; 0-20 μM BLM, 4 hours at 37° C. (FIG. 7)) | PUMA induction [1, 9] | PUMA induction ([1]; BLM at concentrations as low as 0.2 μM, 2 hours at 37° C., all cases (FIG. 10C)) | kinetics of PUMA induction [1] | NOXA induction [2] | fragmentation of DNA [3] | PUMA induction ([1]; 100 μM VP-16, 2 hours at 37° C. (FIG. 9C)) | p21 expression [4] | drug sensitivity (p21 mRNA expression) [5] | BAX mRNA induction [6] | PUMA induction ([7]; AML patient, drug concentrations of b94 (FIG. 8B)) | PUMA response ([7]; NHL patient, drug concentrations (FIG. 8C)) | platelet count [8] |
| --- | --- | --- | --- | --- | --- | --- | --- | --- | --- | --- | --- | --- | --- |
| bleomycin [BLM] | more than 0.1 VM | responses were confirmed in all individuals | induced | increased continuously for 8 hours | induced in all individuals | confirmed; also recorded: fragmentation of DNA was observed |  |  |  |  |  |  |  |
| COc1cc([C@@H]2c3cc4c(cc3[C@@H](O[C@@H]3O[C@@H]5CO[C@@H](C)O[C@H]5[C@H](O)[C@H]3O)[C@H]3COC(=O)[C@H]23)OCO4)cc(OC)c1O [VP-16, etoposide] |  | responses were confirmed in all individuals |  | transient induction | induced in all individuals |  | induced | slight but significant p21 expression | resistant | induced | huge induction | strong PUMA response | increased substantially |
